Key:
SMARCA2 = SMARCA2 (Homo sapiens, UniProt P51531); experiment: HiBit assay in engineered HT1080 CRISPR knock-in cell, 6 hrs (B series), SMARCA2; format: cell-based; conditions: 6 hrs incubation; for DC50: read-out: SMARC A2 HT1080 HiBit DC50; for Dmax: HT-1080, HT1080 CRISPR knock-in cells, read-out: SMARC A2 HT1080 HiBit Dmax (%)
Method in brief: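 Compounds were dispensed first, then HT1080 knock-in cells added and incubated for 6 hrs at 37° C. Next, detection reagent containing LgBiT and lytic substrate was added. Plates were shaken 10 min and centrifuged, and luminescence was measured.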

SMARCA4 = SMARCA4 (Homo sapiens, UniProt P51532); experiment: HiBit assay in engineered HT1080 CRISPR knock-in cell, 6 hrs (B series), SMARCA4; format: cell-based; conditions: 6 hrs incubation; for DC50: read-out: SMARC A4 HT1080 HiBit DC50; for Dmax: HT-1080, HT1080 CRISPR knock-in cells, read-out: SMARC A4 HT1080 HiBit Dmax(%)
Sequence of SMARCA4 (P51532 whole entry): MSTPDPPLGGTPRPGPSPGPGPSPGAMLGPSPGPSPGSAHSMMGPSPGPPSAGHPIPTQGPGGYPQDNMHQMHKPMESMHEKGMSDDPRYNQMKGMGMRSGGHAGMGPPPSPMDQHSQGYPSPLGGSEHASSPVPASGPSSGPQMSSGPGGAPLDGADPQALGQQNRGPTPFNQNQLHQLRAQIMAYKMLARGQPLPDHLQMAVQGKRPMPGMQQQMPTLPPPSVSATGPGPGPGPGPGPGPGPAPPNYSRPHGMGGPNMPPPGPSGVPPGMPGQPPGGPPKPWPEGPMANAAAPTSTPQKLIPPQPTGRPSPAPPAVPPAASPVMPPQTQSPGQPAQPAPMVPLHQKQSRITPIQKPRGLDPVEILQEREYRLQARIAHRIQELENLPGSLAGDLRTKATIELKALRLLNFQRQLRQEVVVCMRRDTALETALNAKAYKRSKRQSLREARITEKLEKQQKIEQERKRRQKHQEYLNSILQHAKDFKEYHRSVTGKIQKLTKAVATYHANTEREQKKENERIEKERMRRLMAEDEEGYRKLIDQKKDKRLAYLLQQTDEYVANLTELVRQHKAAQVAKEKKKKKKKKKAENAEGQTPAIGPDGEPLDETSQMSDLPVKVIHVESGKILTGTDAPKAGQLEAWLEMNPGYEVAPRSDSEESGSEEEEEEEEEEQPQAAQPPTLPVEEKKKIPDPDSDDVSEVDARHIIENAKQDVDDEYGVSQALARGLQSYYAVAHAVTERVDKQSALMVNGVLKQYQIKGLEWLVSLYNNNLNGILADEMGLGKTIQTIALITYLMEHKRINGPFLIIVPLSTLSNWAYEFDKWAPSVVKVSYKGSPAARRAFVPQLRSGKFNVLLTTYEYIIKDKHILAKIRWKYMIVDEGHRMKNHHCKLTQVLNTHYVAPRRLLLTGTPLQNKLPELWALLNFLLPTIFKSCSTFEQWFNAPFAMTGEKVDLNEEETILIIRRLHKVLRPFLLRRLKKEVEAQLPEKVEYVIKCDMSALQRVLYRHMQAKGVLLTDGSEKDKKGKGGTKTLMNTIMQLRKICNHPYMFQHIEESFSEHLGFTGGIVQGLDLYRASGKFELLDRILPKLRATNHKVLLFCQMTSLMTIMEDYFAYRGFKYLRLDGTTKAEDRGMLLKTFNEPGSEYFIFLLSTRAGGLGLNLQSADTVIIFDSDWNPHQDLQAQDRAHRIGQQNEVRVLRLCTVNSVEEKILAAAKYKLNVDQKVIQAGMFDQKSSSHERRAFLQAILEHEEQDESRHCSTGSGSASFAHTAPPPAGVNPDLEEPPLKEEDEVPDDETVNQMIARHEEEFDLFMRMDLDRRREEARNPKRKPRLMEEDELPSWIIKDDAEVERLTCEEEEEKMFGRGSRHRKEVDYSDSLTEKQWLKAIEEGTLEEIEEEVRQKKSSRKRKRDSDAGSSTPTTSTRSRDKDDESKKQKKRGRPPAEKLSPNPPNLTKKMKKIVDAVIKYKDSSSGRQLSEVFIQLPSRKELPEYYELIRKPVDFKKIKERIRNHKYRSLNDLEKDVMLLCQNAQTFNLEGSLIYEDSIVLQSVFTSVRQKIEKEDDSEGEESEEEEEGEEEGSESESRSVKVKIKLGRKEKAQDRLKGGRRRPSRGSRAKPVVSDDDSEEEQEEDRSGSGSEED
Method in brief: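 Engineered HT1080 knock-in cells, 2000 cells/well, 6 hrs compound exposure, 37° C/5% CO2, 0.1% DMSO final. Lytic detection: LgBiT 1:100 plus HiBiT substrate 1:50 in lytic buffer, 10 min shake at RT, luminescence read.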

Sequence of SMARCA2 (P51531 whole entry): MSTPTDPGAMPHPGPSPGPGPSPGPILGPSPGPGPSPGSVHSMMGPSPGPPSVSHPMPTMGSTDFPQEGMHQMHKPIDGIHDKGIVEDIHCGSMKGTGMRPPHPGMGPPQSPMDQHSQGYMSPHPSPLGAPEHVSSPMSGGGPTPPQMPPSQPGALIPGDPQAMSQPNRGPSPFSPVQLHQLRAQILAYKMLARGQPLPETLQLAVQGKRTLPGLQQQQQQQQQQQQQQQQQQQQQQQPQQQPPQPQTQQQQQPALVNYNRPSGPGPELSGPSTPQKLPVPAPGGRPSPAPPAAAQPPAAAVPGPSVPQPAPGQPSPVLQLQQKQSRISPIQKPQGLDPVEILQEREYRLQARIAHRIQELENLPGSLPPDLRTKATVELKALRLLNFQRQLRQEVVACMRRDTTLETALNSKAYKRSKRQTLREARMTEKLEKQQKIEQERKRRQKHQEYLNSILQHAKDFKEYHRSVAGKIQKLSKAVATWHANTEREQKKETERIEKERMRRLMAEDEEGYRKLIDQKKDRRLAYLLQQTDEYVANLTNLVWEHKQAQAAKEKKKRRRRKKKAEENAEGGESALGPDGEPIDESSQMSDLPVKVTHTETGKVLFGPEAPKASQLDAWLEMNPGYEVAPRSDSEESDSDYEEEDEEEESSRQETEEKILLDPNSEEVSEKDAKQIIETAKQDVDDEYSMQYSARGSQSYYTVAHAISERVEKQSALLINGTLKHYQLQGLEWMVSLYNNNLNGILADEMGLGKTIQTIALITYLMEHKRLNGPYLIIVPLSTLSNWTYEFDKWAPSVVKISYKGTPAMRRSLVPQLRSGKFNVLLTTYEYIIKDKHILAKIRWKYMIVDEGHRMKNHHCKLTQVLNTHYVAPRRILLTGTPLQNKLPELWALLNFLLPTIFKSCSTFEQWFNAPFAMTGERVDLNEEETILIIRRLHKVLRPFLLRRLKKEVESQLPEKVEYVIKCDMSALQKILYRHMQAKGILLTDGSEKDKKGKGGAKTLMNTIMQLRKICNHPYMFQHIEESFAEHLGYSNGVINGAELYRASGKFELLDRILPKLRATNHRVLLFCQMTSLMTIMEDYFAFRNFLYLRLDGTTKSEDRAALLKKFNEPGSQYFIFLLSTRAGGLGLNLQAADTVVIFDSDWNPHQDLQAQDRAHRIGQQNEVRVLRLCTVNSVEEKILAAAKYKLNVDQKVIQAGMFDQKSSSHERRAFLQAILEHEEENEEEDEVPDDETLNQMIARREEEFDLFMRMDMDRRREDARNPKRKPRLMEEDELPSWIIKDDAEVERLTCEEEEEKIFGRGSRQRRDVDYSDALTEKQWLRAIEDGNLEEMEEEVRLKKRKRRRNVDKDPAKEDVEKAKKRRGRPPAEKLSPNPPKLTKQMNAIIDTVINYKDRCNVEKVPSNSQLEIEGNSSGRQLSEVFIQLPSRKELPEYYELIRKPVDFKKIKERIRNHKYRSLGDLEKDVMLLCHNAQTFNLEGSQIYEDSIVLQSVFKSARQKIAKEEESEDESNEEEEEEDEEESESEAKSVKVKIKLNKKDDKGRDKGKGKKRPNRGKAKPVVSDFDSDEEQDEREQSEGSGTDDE

Structure (SMILES)	DC50 (SMARCA2; HT1080 CRISPR knock-in cells) [nM]	Dmax (SMARCA2) [%]	DC50 (SMARCA4; HT1080 CRISPR knock-in cells) [nM]	Dmax (SMARCA4) [%]	SMARC A2 HT1080 HiBit Dmax (%) (SMARCA2; HT1080 CRISPR knock-in cells)	SMARC A4 HT1080 HiBit Dmax(%) (SMARCA4; HT1080 CRISPR knock-in cells)
Cc1ncsc1-c1ccc([C@H](C)NC(=O)[C@@H]2C[C@@H](O)CN2C(=O)[C@@H](NC(=O)c2ccc(CN3CCC(c4ccc5c(c4)C(C)(C)c4nc(=O)c6c(Cl)cccc6n4-5)CC3)s2)C(C)(C)C)cc1 [Compound B20, (2S,4R)-1-((S)-2-(5-((4-(4-chloro-7,7-dimethyl-5-oxo-5,7-dihydroindolo[1,2-a]quinazolin-9-yl)piperidin-1-yl)methyl)thiophene-2-carboxamido)-3,3-dimethylbutanoyl)-4-hydroxy-N-((S)-1-(4-(4-methylthiazol-5-yl)phenyl)ethyl)pyrrolidine-2-carboxamide]	< 100	> 90	< 100	70 to 90		
Cc1ncsc1-c1ccc([C@H](C)NC(=O)[C@@H]2C[C@@H](O)CN2C(=O)[C@@H](c2cc(OC3CCC(Cn4cc(-c5ccc6c(c5)-n5c(nc(=O)c7c(Cl)cccc75)C6(C)C)cn4)CC3)no2)C(C)C)cc1 (stereo partly drawn) [Compound B96, (2S,4R)-1-((R)-2-(3-((4-((4-(4-chloro-7,7-dimethyl-5-oxo-5,7-dihydroindolo[1,2-a]quinazolin-10-yl)-1H-pyrazol-1-yl)methyl)cyclohexyl)oxy)isoxazol-5-yl)-3-methylbutanoyl)-4-hydroxy-N-((S)-1-(4-(4-methylthiazol-5-yl)phenyl)ethyl)pyrrolidine-2-carboxamide]	< 100		100 to 500		B (B (70-90% degradation))	D (D (<50% degradation))
Cc1ncsc1-c1ccc([C@H](C)NC(=O)[C@@H]2C[C@@H](O)CN2C(=O)[C@@H](n2cc(C3CC4(C3)CC(N3CCC(c5ccc6c(c5)-n5c(nc(=O)c7c(Cl)cccc75)C6(C)C)CC3)C4)nn2)C(C)(C)C)cc1 (stereo partly drawn) [Compound B86, (2S,4R)-1-((S)-2-(4-(6-(4-(4-chloro-7,7-dimethyl-5-oxo-5,7-dihydroindolo[1,2-a]quinazolin-10-yl)piperidin-1-yl)spiro[3.3]heptan-2-yl)-1H-1,2,3-triazol-1-yl)-3,3-dimethylbutanoyl)-4-hydroxy-N—((S)-1-(4-(4-methylthiazol-5-yl)phenyl)ethyl)pyrrolidine-2-carboxamide]	< 100	> 90	< 100	70 to 90		
Cc1ncsc1-c1ccc([C@H](CC(=O)NC2CCC(N3CCC(c4ccc5c(c4)-n4c(nc(=O)c6c(Cl)cccc64)C5(C)C)CC3)CC2)NC(=O)[C@@H]2C[C@@H](O)CN2C(=O)[C@@H](NC(=O)C2(F)CC2)C(C)(C)C)cc1 (stereo partly drawn) [Compound B31, (2S,4R)—N—((S)-3-((4-(4-(4-chloro-7,7-dimethyl-5-oxo-5,7-dihydroindolo[1,2-a]quinazolin-10-yl)piperidin-1-yl)cyclohexyl)amino)-1-(4-(4-methylthiazol-5-yl)phenyl)-3-oxopropyl)-1-((S)-2-(1-fluorocyclopropane-1-carboxamido)-3,3-dimethylbutanoyl)-4-hydroxypyrrolidine-2-carboxamide]	100 to 500	70 to 90	100 to 500	< 50		
Cc1cc(C(C(=O)N2C[C@H](O)C[C@H]2C(=O)N[C@@H](C)c2ccc(-c3scnc3C#CCN3CCC(c4cccc5c4C(C)(C)c4nc(=O)c6c(Cl)cccc6n4-5)CC3)cc2)C(C)C)on1 (stereo partly drawn) [Compound B150, (2S,4R)-N-((S)-1-(4-(4-(3-(4-(4-chloro-7,7-dimethyl-5-oxo-5,7-dihydroindolo[1,2-a]quinazolin-8-yl)piperidin-1-yl)prop-1-yn-1-yl)thiazol-5-yl)phenyl)ethyl)-4-hydroxy-1-(3-methyl-2-(3-methylisoxazol-5-yl)butanoyl)pyrrolidine-2-carboxamide]	< 100	50 to 69	100 to 500	< 50		
Cc1ncsc1-c1ccc([C@H](C)NC(=O)[C@@H]2C[C@@H](O)CN2C(=O)[C@@H](c2cc(OCCn3cc(-c4ccc5c(c4)C(C)(C)c4nc(=O)c6c(Cl)cccc6n4-5)cn3)no2)C(C)C)cc1 [Compound B52, (2S,4R)-1-((R)-2-(3-(2-(4-(4-chloro-7,7-dimethyl-5-oxo-5,7-dihydroindolo[1,2-a]quinazolin-9-yl)-1H-pyrazol-1-yl)ethoxy)isoxazol-5-yl)-3-methylbutanoyl)-4-hydroxy-N-((S)-1-(4-(4-methylthiazol-5-yl)phenyl)ethyl)pyrrolidine-2-carboxamide]	< 100	70 to 90	> 1000	< 50		
Cc1cc(C(C(=O)N2C[C@H](O)C[C@H]2C(=O)N[C@@H](CN2CCC(CN3CCC(c4cccc5c4C(C)(C)c4nc(=O)c6c(Cl)cccc6n4-5)CC3)CC2)c2ccc(-c3scnc3C)cc2)C(C)C)on1 (stereo partly drawn) [Compound B139, (2S,4R)—N—((R)-2-(4-((4-(4-chloro-7,7-dimethyl-5-oxo-5,7-dihydroindolo[1,2-a]quinazolin-8-yl)piperidin-1-yl)methyl)piperidin-1-yl)-1-(4-(4-methylthiazol-5-yl)phenyl)ethyl)-4-hydroxy-1-(3-methyl-2-(3-methylisoxazol-5-yl)butanoyl)pyrrolidine-2-carboxamide]	< 100	> 90	< 100	70 to 90		
C[C@H](NC(=O)[C@@H]1C[C@@H](O)CN1C(=O)[C@@H](NC(=O)[C@H]1CC[C@H](CN2CCC(c3ccc4c(c3)C(C)(C)c3nc(=O)c5c(Cl)cccc5n3-4)CC2)CC1)C(C)(C)C)c1ccc(-c2ncnn2C)cc1 [Compound B88, (2S,4R)-1-((S)-2-((11,4S)-4-((4-(4-chloro-7,7-dimethyl-5-oxo-5,7-dihydroindolo[1,2-a]quinazolin-9-yl)piperidin-1-yl)methyl)cyclohexane-1-carboxamido)-3,3-dimethylbutanoyl)-4-hydroxy-N-((S)-1-(4-(1-methyl-1H-1,2,4-triazol-5-yl)phenyl)ethyl)pyrrolidine-2-carboxamide]	> 1000	< 50	> 1000	< 50		
Cc1nc(C)c(-c2ccc([C@H](C)NC(=O)[C@@H]3C[C@@H](O)CN3C(=O)[C@@H](c3cc(N4CCC(c5cccc6c5C(C)(C)c5nc(=O)c7c(Cl)cccc7n5-6)CC4)no3)C(C)C)cc2)s1 [Compound B167, (2S,4R)-1-(2-(3-(4-(4-chloro-7,7-dimethyl-5-oxo-5,7-dihydroindolo[1,2-a]quinazolin-8-yl)piperidin-1-yl)isoxazol-5-yl)-3-methylbutanoyl)-N-((S)-1-(4-(2,4-dimethylthiazol-5-yl)phenyl)ethyl)-4-hydroxypyrrolidine-2-carboxamide]	< 100	70 to 90	100 to 500	< 50		
Cc1ncsc1-c1ccc([C@H](C)NC(=O)[C@@H]2C[C@@H](O)CN2C(=O)[C@@H](NC(=O)CCCCn2cc(-c3ccc4c(c3)C(C)(C)c3nc(=O)c5c(Cl)cccc5n3-4)cn2)C(C)(C)C)cc1 [Compound B87, (2S,4R)-1-((S)-2-(5-(4-(4-chloro-7,7-dimethyl-5-oxo-5,7-dihydroindolo[1,2-a]quinazolin-9-yl)-1H-pyrazol-1-yl)pentanamido)-3,3-dimethylbutanoyl)-4-hydroxy-N-((S)-1-(4-(4-methylthiazol-5-yl)phenyl)ethyl)pyrrolidine-2-carboxamide]	100 to 500	50 to 69	> 1000	< 50		
